The source of these data is patent publication US20250064890A1, “PROTEIN COMPOSITIONS FOR THE TREATMENT OF INFLAMMATORY DISEASES” (Unichem Laboratories Limited, priority 2021, published 2025).

Data set [1] deals with 5-Fluorouracil induced OM. As to the kind of experiment: Histopathology score of cheek pouch, 5-FU induced OM in hamsters. The data set is classed as in vivo, golden Syrian hamsters. The settings on record: G3, 0.1 mg/Animal; scale 1-5. How it is done:
(§1) To induce OM, animals were administered (except normal control) 5-Fluorouracil (5-FU) by intraperitoneal route at doses of 60 mg/kg & 40 mg/kg respectively on first two days. On Day 4, under anesthesia, with aim of enhancing OM, mechanical irritation of the oral mucosa were done using wire brush. Treatment was initiated from Day 4 to Day 12. For group 3 animals 100 μl of vehicle comprising of standard drug Dexamethasone at 0.1 mg was instilled in buccal cheek pouch. For group 4, 5 and 6 animals 100 μl of vehicle comprising of SEQ ID NO. 2 at 0.25 mg, 0.5 mg & 1 mg, respectively was instilled in buccal cheek pouch. At the end of treatment period, cheek pouch of the hamsters was exposed, Mucositis scoring was carried out and images were captured. The animals were then humanely sacrificed, cheek pouch/jugular mucosa were isolated and used for biomarker estimation and histopathological investigation by using ELISA method and Hematoxylin and Eosin (H&E) staining, respectively.
For histopathology the oral mucosa tissues were sectioned 5 μm thickness and stained with hematoxylin-eosin staining. For study histopathological the sections were analyzed by light microscopy.
The pouch/jugular mucosa were observed and scored for infiltration of inflammatory cells, vasodilatation, presence of hemorrhagic areas, edema, ulcerations, and abscesses.

A further data set concerns Interleukin-1β. As to the kind of experiment: Interleukin-1β in jugular mucosa (ELISA), 5-FU induced OM in hamsters. The class given is in vivo, golden Syrian hamsters. As to conditions: G3, 0.1 mg/Animal. The procedure:
as §1
(§2) Further, for biomarker estimation jugular mucosa was dissected out, tissue weighed and stored in ice cold 1×PBS. 100 mg of tissue was taken and in 1 ml of 1×PBS buffer. Supernatant of homogenate was used for analysis of TNF-α and Interleukin-1β using ELISA method as per manufacturers instruction. The levels of TNF-α and Interleukin-1β are given in Table 13, FIG. 2 and Table 14, FIG. 3, respectively.
(In general: An ELISA detects its analyte on a solid surface through an enzyme-linked reagent.)

Data set [2] in a line: Body weight change in 5-FU induced OM hamsters. The class given is in vivo, golden Syrian hamsters. As to conditions: G3, 0.1 mg/Animal in buccal cheek pouch, Day 4 to Day 12, with respect to Day 4. The procedure: In-vivo experiments conducted in healthy golden Syrian hamsters wherein animals were grouped as below:
as §1
Body weight of each animal was recorded daily till the end of experiment. Percentage change in body weight of the animals was calculated by using formula with respect to Day 4.

Data set [3] concerns 5-Fluorouracil induced OM. Description: Mucositis severity score, 5-FU induced OM in hamsters. The class given is in vivo, golden Syrian hamsters. The settings on record: G3, 0.1 mg/Animal, after 12 days; scale 0-5. The procedure:
as §1
Mucositis severity was scored as given below: • Cheek pouch completely healthy—0; Mild erythema—1; • Severe erythema and superficial erosion—2; Formation of ulcers in one or more places—3; Cumulative ulcer formation about 50% of cheek pouch surface area—4; Complete ulceration of the cheek pouch mucosa—5.

A further data set deals with TNF-α. As to the kind of experiment: TNF-α in jugular mucosa (ELISA), 5-FU induced OM in hamsters. The class given is in vivo, golden Syrian hamsters. As to conditions: G3, 0.1 mg/Animal. The procedure:
as §1, §2

Data set [4] deals with oral (buccal) mucosa cells (TR146). As to the kind of experiment: Cytoprotective effect against 5-FU induced damage (MTT). The data set is classed as cell-based, human. How it is done: The cell viability was assessed by (MTT) assay and compared with positive control (Cells treated with Amifostine, EGCG and EGF and negative assay (untreated cells), wherein the control was the cells that underwent chemotherapy/radiotherapy.
The protective effect of the recombinant lectin on survival of TR146 cells against 5-FU induced damage was determined using following calculations:
The viability of cells was determined as: % Cell viability=(100−% Cytotoxicity); • where, the percentage cytotoxicity corresponding to each treatment was calculated as: % Cytotoxicity=[(R−X)/R]*100, wherein X=Absorbance of cells treated with 5-FU or radiation damage/TI+5-FU, R=Absorbance of Control cells (Untreated) and Percentage protection was calculated as:
{(Absorbance of TI+5-FU or radiation)−(Absorbance of 5-FU or radiation alone)/(Absorbance of Untreated)−(Absorbance of 5-FU alone)}*100

Turning to `C[C@@H]1C[C@H]2[C@@H]3CCC4=CC(=O)C=C[C@]4(C)[C@@]3(F)[C@@H](O)C[C@]2(C)[C@@]1(O)C(=O)CO` [Dexamethasone, reference compound], the “Histopathology score, Mean” value in data set [1] came to 1.6. In addition, the “IL-1β levels, Mean” value in the data set with Interleukin-1β is recorded as 163.96. Further, in the data set with Interleukin-1β (G2 = OM + Vehicle), the “IL-1β levels, % Decrease vs G2” value turned out to be 5.59%. Further, in data set [2], the “decrease of body weight” value was 6.59%. Moreover, in data set [3], the Mucositis score was 2.00±0.3. Besides, the “TNF-α levels, Mean” value in the data set on TNF-α came to 134.29 pg/mL. In addition, the “TNF-α levels, % Decrease vs G2” value in the data set on TNF-α (G2 = OM + Vehicle) is listed as −8.29%.

`O=C(O[C@@H]1Cc2c(O)cc(O)cc2O[C@@H]1c1cc(O)c(O)c(O)c1)c1cc(O)c(O)c(O)c1` [EGCG, Epigallocatechin gallate]: the “% Protection” value came out at 19.5% in data set [4] (0.01 μM + 5-FU (5 mM)), 42.4% in data set [4] (0.1 μM + 5-FU (5 mM)), 47.9% in data set [4] (1 μM + 5-FU (5 mM)) and 24.2% in data set [4] (10 μM + 5-FU (5 mM)). In addition, the “% cytotoxicity” value in data set [4] (0.01 μM + 5-FU (5 mM)) is recorded as 47%; in data set [4] (0.1 μM + 5-FU (5 mM)) it was 33.6%; in data set [4] (1 μM + 5-FU (5 mM)), 30.4%; in data set [4] (10 μM + 5-FU (5 mM)), 44.2%. The “% viability” value came out at 53% in data set [4] (0.01 μM + 5-FU (5 mM)), 66.4% in data set [4] (0.1 μM + 5-FU (5 mM)), 69.6% in data set [4] (1 μM + 5-FU (5 mM)) and 55.8% in data set [4] (10 μM + 5-FU (5 mM)).
